From patent US4902677A, “Treatment of heart failure of mammals with N^6 -substituted cyclic adenosine monophosphates” (Kikkoman Corporation, priority 1987, dated 1990)
Where a name gives a salt, the structure may show the parent alone.

Assays:
[1] = tested on: guinea pig papillary muscle; test: Contractive force of extirpated guinea pig papillary muscle preparation (Test Example 1); details: Cavia porcellus; 10^-3 M; relative to 10^-7 M Isoproterenol (positive control) as 100%; read-out: Increase in contractive force
Experimental: Test animal: guinea-pigs Method of Experiment: extirpated guinea pig papillary muscle preparation. Male albino guinea pigs having body weights of 300 to 500 g were stunned by a blow on the head. The hearts were quickly extirpated and the papillary muscles of the right ventricle were dissected out in cold bathing solution (2° to 4° C.), and were suspended in a 10 ml organ bath for recording isometric contractions. The bathing solution was the Krebs-Henseleit solution (32°±0.5° C.) and was continuously bubbled with a mixed gas composed of 95% O2 and 5% CO2. The papillary muscle preparation were stimulated by square wave pulses of 1 msec duration at the frequency of 1 Hz and at voltages of 20% above the threshold supplied by a square-wave pulse stimulator via a pair of the silver plate electrodes in which the preparations were placed. The isometric contraction was measured by a force-displacement transducer connected to a carrier-amplifier. The test solution was prepared by dissolving the sodium salt into distilled water or dissolving the free acid into Krebs-Henseleit solution. […] The results are shown as relative values (%), taking the result given by a reaction using 10^-7 M Isoproterenol (positive control) as 100%.

[2] = Acute toxicity, intraperitoneal (Test Example 3); details: mouse, in vivo, ip, female mice, in dimethyl sulfoxide, observed for 7 days
Experimental: Test animal: female ICR-CRJ: CD-1 mice, 5 weeks old, body weight 29 to 32 g
LD50 was calculated according to the Richfield-Wilcockson method (Pharmacological Tests, p 200-205, Nanzando, 1967).

[3] = tested on: heart-lung preparation; test: Cardiotonic activity on heart-lung preparation, acute heart failure induced by Pentobarbital (Test Example 2); parameters: species or system dog; details: for Change in Heart rate / Decrease in right atrium pressure / Increase in systemic output: versus nonadministration group
Experimental: Test animal: Crossbred adult dogs (female and male) Method of Experiment: cardiotonic activity on heart-lung preparation. Using female and male crossbred dogs having body weights of 9 to 10 kg anesthetized with Pentobarbital, heart-lung preparations were prepared in the usual way, on which systemic output, right atrium pressure and heart rate were measured. […] Regarding the control (no administration group), the results express the values after administration of Pentobarbital.

[4] = tested on: heart; details: literature; result in words; cited from earlier work

With O=P1(O)OC[C@H]2O[C@@H](n3cnc4c(NCc5ccccc5)ncnc43)[C@H](O)[C@@H]2O1 [N^6 --Benzyl-C--AMP Na] the activation at 1000 µM [1] was 91.7% and the LD50 at 168 h [2] was 383 mg/kg.

In the case of CCCCNc1ncnc2c1ncn2[C@@H]1O[C@@H]2COP(=O)(O)O[C@H]2[C@H]1O [N^6 --Butyl-C--AMP], the activation at 1000 µM [1] is reported as 71% and the LD50 at 168 h [2] is reported as 350 mg/kg.

With O=P1(O)OC[C@H]2O[C@@H](n3cnc4c(NCc5ccco5)ncnc43)[C@H](O)[C@@H]2O1 [N^6 --Furfuryl-C--AMP Na] the activation at 1000 µM [1] was 93.2% and the LD50 at 168 h [2] was 483 mg/kg.

With CCCCCCCNc1ncnc2c1ncn2[C@@H]1O[C@@H]2COP(=O)(O)O[C@H]2[C@H]1O [N^6 --Heptyl-C--AMP, N^6-heptyladenosine-3',5'-cyclic phosphate] the activation at 1000 µM [1] was 94.1%, the LD50 at 168 h [2] was 174 mg/kg and the “acute heart failure state induced by Pentobarbital” value ([3]; 10 mg or 30 mg, result in words) was “remarkably improved”.

For CC(C)CNc1ncnc2c1ncn2[C@@H]1O[C@@H]2COP(=O)(O)O[C@H]2[C@H]1O [N^6 --Isobutyl-C--AMP], the activation at 1000 µM [1] was 24%.

For CCCCCCCCCNc1ncnc2c1ncn2[C@@H]1O[C@@H]2COP(=O)(O)O[C@H]2[C@H]1O [N^6 --Nonyl-C--AMP Na], the activation at 1000 µM [1] was 49.5% and the LD50 at 168 h [2] was 150 mg/kg.

Work on CCCCCNc1ncnc2c1ncn2[C@@H]1O[C@@H]2COP(=O)(O)O[C@H]2[C@H]1O [N^6 --Pentyl-C--AMP] yielded an activation at 1000 µM [1] of 98%.

For CCCC(=O)Nc1ncnc2c1ncn2[C@@H]1O[C@@H]2COP(=O)(O)O[C@H]2[C@H]1OC(=O)CCC [N^6,2'-O-dibutyryl C-AMP], the myocardial contractility [4] is given as “have a mycocardial contractile effect”.

Work on CCCCCCCNc1ncnc2c1ncn2[C@@H]1O[C@@H]2COP(=O)(O)O[C@H]2[C@H]1O [sodium salt of N^6-heptyl-adenosine-3',5'-cyclic phosphate] yielded a Heart rate ([3]; 10 mg) of 112 beats/min, a Right atrium pressure ([3]; 10 mg) of 96.9 mm H2 O and a Systemic output ([3]; 10 mg) of 409 ml/min./100 g heart. The “Change in Heart rate” value ([3]; 10 mg) was 2 beats/min, the “Decrease in right atrium pressure” value ([3]; 10 mg) was 12.1 mm H2 O and the “Increase in systemic output” value ([3]; 10 mg) was 150 ml/min./100 g heart. The Heart rate ([3]; 30 mg) was 120 beats/min, the Right atrium pressure ([3]; 30 mg) was 68.3 mm H2 O and the Systemic output ([3]; 30 mg) was 610 ml/min./100 g heart. The “Change in Heart rate” value ([3]; 30 mg) was 10 beats/min, the “Decrease in right atrium pressure” value ([3]; 30 mg) was 40.7 mm H2 O and the “Increase in systemic output” value ([3]; 30 mg) was 351 ml/min./100 g heart.
